Measurements from patent publication EP0155623A2, “Use of lipoxygenase inhibitors for the preparations of cytoprotective pharmaceutical compostions and process for the preparation of a cytoprotective pharmaceutical composition” (Merck & Co., Inc., priority 1984, dated 1985).

Test system: ulcers in 24 hr. fasted S.D. rats
Assay: Indomethacin-Induced Ulcer Assay (assay B)
Type: in vivo
Settings: 15 min prior to indomethacin 10 mg/kg p.o., stomach mucosae examined 4 hours later
Protocol: B. Indomethacin-Induced Ulcer Assay
Indomethacin, 10 mg/kg p.o., is used to induce ulcers in 24 hr. fasted S.D. rats. Fifteen minutes prior to indomethacin administration, groups of rats each receive either an aqueous vehicle (5% wt. methylcellulose) or the test compound at various doses perorally. Four hours later the animals are sacrificed and stomach-mucosae are examined for resulting ulcers.
Following the procedure of assay B (Indomethacin-Induced Ulcer Assay), 4-bromo-2,7-dimethoxy-3H-phenothiazin-3-one was tested for ulcer inhibition. For Table 49-1, % Inhibition was calculated as: [formula]

## COc1ccc2nc3cc(OC)c(=O)c(Br)c-3sc2c1 [4-Bromo-2,7-dimethoxy-3H-phenothiazin-3-one]
Dose 0.003 mg/kg perorally
  % Inhibition: 38%
Dose 0.01 mg/kg perorally
  % Inhibition: 56%
Dose 0.03 mg/kg perorally
  % Inhibition: 69%
Dose 0.1 mg/kg perorally
  % Inhibition: 66%
Dose 0.3 mg/kg perorally
  % Inhibition: 70%
Dose 3.0 mg/kg perorally
  % Inhibition: 87%
